The target in the experiment is human galectin-1 (Gal-1) (Homo sapiens, UniProt P09382). The experiment in a line: ITC, single-site model. The class given is binding. The settings on record: 50 mM sodium phosphate, 150 mM NaCl, pH 7.4, 1 mM TCEP. A general note: Isothermal titration calorimetry measures the heat released or taken up as one component is titrated into another.
Chain of human galectin-1 (Gal-1) (P09382 2-135): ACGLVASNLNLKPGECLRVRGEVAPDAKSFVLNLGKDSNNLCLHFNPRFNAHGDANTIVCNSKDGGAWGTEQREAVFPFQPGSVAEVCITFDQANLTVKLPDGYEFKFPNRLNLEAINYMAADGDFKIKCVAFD

Compound `CC(=O)N[C@H]1C(O)O[C@H](CO)[C@@H](O[C@@H]2O[C@H](CO)[C@H](O)[C@H](O)[C@H]2O[C@@H]2O[C@@H](C)[C@@H](O)[C@@H](O)[C@@H]2O)[C@@H]1O` (some centres unmarked) [compound 3, H type‐II] registered a Kd of 319 µM.

`CC(=O)N[C@H]1C(O)O[C@H](CO)[C@@H](O[C@@H]2O[C@H](CO)[C@H](O)[C@H](O[C@H]3O[C@H](CO)[C@H](O)[C@H](O)[C@H]3O)[C@H]2O[C@@H]2O[C@@H](C)[C@@H](O)[C@@H](O)[C@@H]2O)[C@@H]1O` (some centres unmarked) [compound 4, B type‐II] had a Kd of 379 µM. The Kd values of the last two compounds are within 1.5-fold of each other.

As a reminder, the Kd is the concentration at which binding is half-saturated. A higher Kd goes with weaker binding.

(Values after publication PMC7756784 (Chemistry (Weinheim an Der Bergstrasse, Germany), 2020).)
